Data from ChEMBL document CHEMBL5143607, “Discovery and structure-activity relationships of a novel oxazolidinone class of bacterial type II topoisomerase inhibitors” (Bioorg Med Chem Lett, 2022).
Values after ≈ are worked out from the molar mass of the structure shown.

What was measured:
[1] = Cytotoxicity against human HepG2 cells assessed as reduction in cell viability for 24 hrs by Celltiter-Glo assay; format: toxicity, cell-based
Acinetobacter baumannii = assay: Antibacterial activity against Acinetobacter baumannii NCTC 13420 assessed as bacterial growth inhibition by CLSI protocol based assay; format: functional
Klebsiella pneumoniae = assay: Antibacterial activity against Klebsiella pneumoniae ATCC 700603 assessed as bacterial growth inhibition by CLSI protocol based assay; format: functional
Pseudomonas aeruginosa = assay: Antibacterial activity against Pseudomonas aeruginosa ATCC 27853 assessed as bacterial growth inhibition by CLSI protocol based assay; format: functional
Escherichia coli [2] = assay: Antibacterial activity against Escherichia coli W4573 assessed as bacterial growth inhibition by CLSI protocol based assay; format: functional
Escherichia coli [3] = assay: Antibacterial activity against Escherichia coli N43 assessed as bacterial growth inhibition by CLSI protocol based assay; format: functional
Staphylococcus aureus = assay: Antibacterial activity against Staphylococcus aureus ATCC 29213 assessed as bacterial growth inhibition by CLSI protocol based assay; format: functional
hERG (KCNH2) = hERG (KCNH2) (Homo sapiens, UniProt Q12809); assay: Inhibition of human ERG at 100 uM by Ionworks electrophysiology assay; format: toxicity
[4] = Lipophilicity, logD of the compound by shake flask assay; format: physicochemical; conditions: octanol/water
[5] = Inhibition of Escherichia coli topoisomerase 4 assessed as reduction in decatenation
[6] = biological target: Voltage-gated inwardly rectifying potassium channel KCNH2 (Homo sapiens, UniProt Q12809); assay: Inhibition of human ERG by Ionworks electrophysiology assay; format: toxicity
[7] = Protein binding in human plasma by equilibrium dialysis assay; format: ADME, cell-free; conditions: read-out: PPB (converted)

hERG (KCNH2), sequence (Q12809 whole entry): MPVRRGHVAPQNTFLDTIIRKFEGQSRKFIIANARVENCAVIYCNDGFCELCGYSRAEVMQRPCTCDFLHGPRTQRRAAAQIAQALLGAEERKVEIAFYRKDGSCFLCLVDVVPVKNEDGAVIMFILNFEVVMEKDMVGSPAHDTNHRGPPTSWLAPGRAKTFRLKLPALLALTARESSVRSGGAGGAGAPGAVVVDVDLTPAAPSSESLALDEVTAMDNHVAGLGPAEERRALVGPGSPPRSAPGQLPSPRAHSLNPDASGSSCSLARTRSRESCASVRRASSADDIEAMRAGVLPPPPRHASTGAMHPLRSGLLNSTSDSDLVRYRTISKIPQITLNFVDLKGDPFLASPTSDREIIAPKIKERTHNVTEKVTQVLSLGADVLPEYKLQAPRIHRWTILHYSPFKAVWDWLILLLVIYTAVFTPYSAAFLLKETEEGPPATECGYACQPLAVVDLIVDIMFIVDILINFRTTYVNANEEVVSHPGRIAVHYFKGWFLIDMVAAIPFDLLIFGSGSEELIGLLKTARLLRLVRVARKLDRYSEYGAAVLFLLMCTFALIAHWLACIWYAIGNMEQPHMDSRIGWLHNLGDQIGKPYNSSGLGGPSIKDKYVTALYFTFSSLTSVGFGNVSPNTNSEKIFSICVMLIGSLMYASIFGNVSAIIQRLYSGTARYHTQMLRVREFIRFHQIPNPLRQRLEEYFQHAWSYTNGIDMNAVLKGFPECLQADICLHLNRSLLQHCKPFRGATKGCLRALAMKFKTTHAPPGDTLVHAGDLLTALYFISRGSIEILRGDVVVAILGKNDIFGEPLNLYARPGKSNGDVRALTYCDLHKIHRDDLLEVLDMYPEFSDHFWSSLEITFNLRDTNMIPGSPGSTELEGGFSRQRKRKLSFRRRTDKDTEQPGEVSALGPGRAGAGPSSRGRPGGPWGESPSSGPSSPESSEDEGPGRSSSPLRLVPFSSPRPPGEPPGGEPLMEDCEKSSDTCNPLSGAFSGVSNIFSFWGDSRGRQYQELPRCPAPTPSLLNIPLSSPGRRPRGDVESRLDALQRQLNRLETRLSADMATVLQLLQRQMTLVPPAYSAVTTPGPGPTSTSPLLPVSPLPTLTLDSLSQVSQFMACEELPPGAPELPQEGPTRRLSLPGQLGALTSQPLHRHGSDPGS
Voltage-gated inwardly rectifying potassium channel KCNH2, sequence (Q12809 whole entry): as above

## COc1ccc2ccc(=O)n(CCCN[C@H]3CC[C@H]4[C@H](C3)OC(=O)N4c3ccc4c(n3)NC(=O)CO4)c2n1
[1]
  IC50 at 24 h: 40 µg/mL (≈ 76.8 µM)
Acinetobacter baumannii
  MIC: 0.06 µg/mL (≈ 0.115 µM)
Klebsiella pneumoniae
  MIC: 8 µg/mL (≈ 15.4 µM)
Pseudomonas aeruginosa
  MIC: 4 µg/mL (≈ 7.68 µM)
Escherichia coli [2]
  MIC: 0.25 µg/mL (≈ 0.48 µM)
Escherichia coli [3]
  MIC: ≤ 0.002 µg/mL
Staphylococcus aureus
  MIC: 0.015 µg/mL (≈ 0.0288 µM)
hERG (KCNH2)
  inhibition at 100 µM: 97%
[4]
  logD: 1.61

## N#Cc1ccc2c(ccc(=O)n2CCN[C@H]2CC[C@H]3[C@H](C2)OC(=O)N3c2ccc3c(n2)NC(=O)CO3)c1
Acinetobacter baumannii
  MIC: 8 µg/mL (≈ 16 µM)
Klebsiella pneumoniae
  MIC: > 64 µg/mL
Pseudomonas aeruginosa
  MIC: > 64 µg/mL
Escherichia coli [2]
  MIC: 4 µg/mL (≈ 7.99 µM)
Escherichia coli [3]
  MIC: 0.06 µg/mL (≈ 0.12 µM)
Staphylococcus aureus
  MIC: 4 µg/mL (≈ 7.99 µM)
hERG (KCNH2)
  inhibition at 100 µM: 56%
[4]
  logD: 1.69

## O=C1COc2ccc(N3C(=O)O[C@H]4C[C@@H](NCCn5c(=O)cnc6ccc(F)cc65)CC[C@@H]43)nc2N1
[1]
  IC50 at 24 h: > 64 µg/mL
Acinetobacter baumannii
  MIC: 0.03 µg/mL (≈ 0.0607 µM)
Klebsiella pneumoniae
  MIC: 8 µg/mL (≈ 16.2 µM)
Pseudomonas aeruginosa
  MIC: 4 µg/mL (≈ 8.09 µM)
Escherichia coli [2]
  MIC: 0.25 µg/mL (≈ 0.506 µM)
Escherichia coli [3]
  MIC: ≤ 0.002 µg/mL
Staphylococcus aureus
  MIC: 0.015 µg/mL (≈ 0.0303 µM)
hERG (KCNH2)
  inhibition at 100 µM: 33%
[4]
  logD: 1.58

## COc1ccc2ccc(=O)n(CCN[C@H]3CC[C@H]4[C@H](C3)OC(=O)N4c3ccc4c(n3)NC(=O)C(C)(C)O4)c2n1
Acinetobacter baumannii
  MIC: 1 µg/mL (≈ 1.87 µM)
Klebsiella pneumoniae
  MIC: 64 µg/mL (≈ 120 µM)
Pseudomonas aeruginosa
  MIC: 32 µg/mL (≈ 59.9 µM)
Escherichia coli [2]
  MIC: 2 µg/mL (≈ 3.74 µM)
Escherichia coli [3]
  MIC: 0.03 µg/mL (≈ 0.0561 µM)
Staphylococcus aureus
  MIC: 0.03 µg/mL (≈ 0.0561 µM)
[4]
  logD: 2.84

## O=C(O)c1cn(C2CC2)c2cc(N3CCNCC3)c(F)cc2c1=O [CIPROFLOXACIN]
[5]
  IC50: 0.03 µM
[1]
  IC50 at 24 h: > 128 µg/mL

## N#Cc1cnc2ccc(=O)n(CCN[C@H]3CC[C@H]4[C@H](C3)OC(=O)N4c3ccc4c(n3)NC(=O)CS4)c2c1
[1]
  IC50 at 24 h: > 128 µg/mL
Acinetobacter baumannii
  MIC: 0.12 µg/mL (≈ 0.232 µM)
Klebsiella pneumoniae
  MIC: 16 µg/mL (≈ 30.9 µM)
Pseudomonas aeruginosa
  MIC: 2 µg/mL (≈ 3.86 µM)
Escherichia coli [2]
  MIC: 0.5 µg/mL (≈ 0.966 µM)
Escherichia coli [3]
  MIC: 0.004 µg/mL (≈ 0.00773 µM)
Staphylococcus aureus
  MIC: 0.03 µg/mL (≈ 0.058 µM)
[6]
  IC50: 20 µM
[4]
  logD: 1.42

## COc1cc2c(ccc(=O)n2CCN[C@H]2CC[C@H]3[C@H](C2)OC(=O)N3c2ccc3c(n2)NC(=O)CO3)cn1
Acinetobacter baumannii
  MIC: 0.5 µg/mL (≈ 0.987 µM)
Klebsiella pneumoniae
  MIC: 32 µg/mL (≈ 63.2 µM)
Pseudomonas aeruginosa
  MIC: 16 µg/mL (≈ 31.6 µM)
Escherichia coli [2]
  MIC: 2 µg/mL (≈ 3.95 µM)
Escherichia coli [3]
  MIC: 0.06 µg/mL (≈ 0.118 µM)
Staphylococcus aureus
  MIC: 0.5 µg/mL (≈ 0.987 µM)
hERG (KCNH2)
  inhibition at 100 µM: 83%
[4]
  logD: 1.69

## N#Cc1ccc2ccc(=O)n(CCCN[C@H]3CC[C@H]4[C@H](C3)OC(=O)N4c3ccc4c(n3)NC(=O)CO4)c2c1
[1]
  IC50 at 24 h: 55 µg/mL (≈ 107 µM)
Acinetobacter baumannii
  MIC: 0.12 µg/mL (≈ 0.233 µM)
Klebsiella pneumoniae
  MIC: 2 µg/mL (≈ 3.89 µM)
Pseudomonas aeruginosa
  MIC: 1 µg/mL (≈ 1.94 µM)
Escherichia coli [2]
  MIC: 0.06 µg/mL (≈ 0.117 µM)
Escherichia coli [3]
  MIC: ≤ 0.016 µg/mL
Staphylococcus aureus
  MIC: 0.06 µg/mL (≈ 0.117 µM)
[6]
  IC50: 7 µM
[4]
  logD: 1.03

## COc1ccc2ccc(=O)n(CCN[C@@H]3CC[C@@H]4[C@@H](C3)OC(=O)N4c3ccc4c(n3)NC(=O)CO4)c2n1
[1]
  IC50 at 24 h: 64 µg/mL (≈ 126 µM)
Acinetobacter baumannii
  MIC: 0.06 µg/mL (≈ 0.118 µM)
Klebsiella pneumoniae
  MIC: 1 µg/mL (≈ 1.97 µM)
Pseudomonas aeruginosa
  MIC: 0.25 µg/mL (≈ 0.494 µM)
Escherichia coli [2]
  MIC: 0.03 µg/mL (≈ 0.0592 µM)
Escherichia coli [3]
  MIC: < 0.004 µg/mL
Staphylococcus aureus
  MIC: 0.03 µg/mL (≈ 0.0592 µM)
[6]
  IC50: 10 µM
[4]
  logD: 1.8
[7]
  fraction unbound: 0.947

## COc1ccc2ncc(=O)n(CCN[C@H]3CC[C@H]4[C@H](C3)OC(=O)N4c3ccc4c(n3)NC(=O)CO4)c2n1
[1]
  IC50 at 24 h: > 64 µg/mL
Acinetobacter baumannii
  MIC: 0.06 µg/mL (≈ 0.118 µM)
Klebsiella pneumoniae
  MIC: 4 µg/mL (≈ 7.88 µM)
Pseudomonas aeruginosa
  MIC: 4 µg/mL (≈ 7.88 µM)
Escherichia coli [2]
  MIC: 0.25 µg/mL (≈ 0.493 µM)
Escherichia coli [3]
  MIC: ≤ 0.008 µg/mL
Staphylococcus aureus
  MIC: 0.015 µg/mL (≈ 0.0296 µM)
[6]
  IC50: 7 µM
[4]
  logD: 1.6
